Laboratory results taken from the OligoGym collection.
Oligonucleotides are written 5' to 3', each unit as a sugar letter and its base; * is a phosphorothioate linkage, no mark a phosphodiester; rarer units and linkages stand in square brackets, end groups in braces. Plain capitals give the bases only. Oligonucleotides are given in HELM: sugar(base)linkage, 5' to 3'; d 2'-deoxyribose, r ribose, m 2'-O-methylribose, p phosphate. ss, as = sense and antisense strand; d = 2'-deoxy (DNA); r = 2'-OH (RNA)

biological target: UBE2W; test: reporter assay of Huesken 2005; details: siRNA
Also: test concentration or dose not given here.

Substance	normalised inhibition (eCFP-eYFP dual reporter) [%]
sense rCrCrUrCrCrUrGrGrArArUrGrArCrCrUrUrArAdTdT / antisense rUrUrArArGrGrUrCrArUrUrCrCrArGrGrArGrGdTdG	99.3
sense rCrGrArUrArUrCrCrUrUrUrUrGrArCrUrCrUrCdTdT / antisense rGrArGrArGrUrCrArArArArGrGrArUrArUrCrGdAdC	85.7
sense rCrUrArUrUrUrArArArUrUrUrArGrUrArGrUrCdTdT / antisense rGrArCrUrArCrUrArArArUrUrUrArArArUrArGdAdA	83.5
sense rCrUrCrCrUrGrGrArArUrGrArCrCrUrUrArArAdTdT / antisense rUrUrUrArArGrGrUrCrArUrUrCrCrArGrGrArGdGdT	100
sense rCrUrGrGrUrGrArArArArUrArUrUrCrCrUrGrUdTdT / antisense rArCrArGrGrArArUrArUrUrUrUrCrArCrCrArGdTdA	108
sense rCrUrGrUrUrCrArUrCrCrUrCrArUrGrUrUrUrAdTdT / antisense rUrArArArCrArUrGrArGrGrArUrGrArArCrArGdGdA	113
sense rCrUrUrUrCrCrArGrCrUrGrCrArArGrGrArArAdTdT / antisense rUrUrUrCrCrUrUrGrCrArGrCrUrGrGrArArArGdCdA	103
sense rGrArArGrArCrUrGrGrUrCrCrCrCrArGrCrGrCdTdT / antisense rGrCrGrCrUrGrGrGrGrArCrCrArGrUrCrUrUrCdTdG	80.5
sense rGrArCrArUrGrGrArArGrGrUrGrCrArCrCrArGdTdT / antisense rCrUrGrGrUrGrCrArCrCrUrUrCrCrArUrGrUrCdTdA	94.9
sense rGrArCrCrArCrCrGrGrArUrArArUrUrCrUrUrUdTdT / antisense rArArArGrArArUrUrArUrCrCrGrGrUrGrGrUrCdGdT	96.4
sense rGrArGrArArGrArGrUrGrUrUrCrArArArArUrUdTdT / antisense rArArUrUrUrUrGrArArCrArCrUrCrUrUrCrUrCdAdT	116
sense rGrCrArArGrGrArArArArGrArGrArCrGrArCrCdTdT / antisense rGrGrUrCrGrUrCrUrCrUrUrUrUrCrCrUrUrGrCdAdG	112
sense rGrCrGrCrUrCrUrCrArGrUrCrCrArArUrCrArGdTdT / antisense rCrUrGrArUrUrGrGrArCrUrGrArGrArGrCrGrCdTdG	109
sense rGrGrUrCrArUrGrUrUrUrArCrUrGrGrUrGrArAdTdT / antisense rUrUrCrArCrCrArGrUrArArArCrArUrGrArCrCdTdG	103
sense rGrUrGrArArArArUrArUrUrCrCrUrGrUrUrCrAdTdT / antisense rUrGrArArCrArGrGrArArUrArUrUrUrUrCrArCdCdA	82
sense rGrUrGrCrGrArArCrArUrGrUrArArCrArArGrAdTdT / antisense rUrCrUrUrGrUrUrArCrArUrGrUrUrCrGrCrArCdAdT	125
sense rGrUrUrCrArArArArUrUrCrArArUrUrArCrArCdTdT / antisense rGrUrGrUrArArUrUrGrArArUrUrUrUrGrArArCdAdC	73.6
sense rGrUrUrCrArUrCrCrUrCrArUrGrUrUrUrArUrAdTdT / antisense rUrArUrArArArCrArUrGrArGrGrArUrGrArArCdAdG	105
sense rUrArArCrArArGrArArUrCrCrArArArGrArArAdTdT / antisense rUrUrUrCrUrUrUrGrGrArUrUrCrUrUrGrUrUrAdCdA	115
sense rUrArArCrArGrArArGrArCrUrGrGrUrCrCrCrCdTdT / antisense rGrGrGrGrArCrCrArGrUrCrUrUrCrUrGrUrUrAdGdA	64.7
sense rUrArCrCrUrUrArUrArUrGrArArGrGrGrGrArAdTdT / antisense rUrUrCrCrCrCrUrUrCrArUrArUrArArGrGrUrAdCdC	111
sense rUrArCrUrGrGrUrGrArArArArUrArUrUrCrCrUdTdT / antisense rArGrGrArArUrArUrUrUrUrCrArCrCrArGrUrAdAdA	94.4
sense rUrArGrArCrArUrGrGrArArGrGrUrGrCrArCrCdTdT / antisense rGrGrUrGrCrArCrCrUrUrCrCrArUrGrUrCrUrAdCdA	38.9

Substance	normalised inhibition (eCFP-eYFP dual reporter) [%]
sense rUrArUrCrCrArUrUrCrUrArArCrArGrArArGrAdTdT / antisense rUrCrUrUrCrUrGrUrUrArGrArArUrGrGrArUrAdAdA	83.9
sense rUrArUrCrUrGrUrUrUrArUrCrCrArUrUrCrUrAdTdT / antisense rUrArGrArArUrGrGrArUrArArArCrArGrArUrAdTdG	85.9
sense rUrArUrUrCrCrUrGrUrUrCrArUrCrCrUrCrArUdTdT / antisense rArUrGrArGrGrArUrGrArArCrArGrGrArArUrAdTdT	104
sense rUrCrArUrCrCrUrCrArUrGrUrUrUrArUrArGrCdTdT / antisense rGrCrUrArUrArArArCrArUrGrArGrGrArUrGrAdAdC	78.8
sense rUrCrCrArArUrCrArGrUrUrUrGrUrCrUrUrArGdTdT / antisense rCrUrArArGrArCrArArArCrUrGrArUrUrGrGrAdCdT	85
sense rUrCrCrArUrUrCrUrArArCrArGrArArGrArCrUdTdT / antisense rArGrUrCrUrUrCrUrGrUrUrArGrArArUrGrGrAdTdA	64.1
sense rUrCrCrUrGrUrUrCrArUrCrCrUrCrArUrGrUrUdTdT / antisense rArArCrArUrGrArGrGrArUrGrArArCrArGrGrAdAdT	108
sense rUrCrCrUrUrUrUrGrArCrUrCrUrCrCrUrCrArGdTdT / antisense rCrUrGrArGrGrArGrArGrUrCrArArArArGrGrAdTdA	78.4
sense rUrCrGrArUrArUrCrCrUrUrUrUrGrArCrUrCrUdTdT / antisense rArGrArGrUrCrArArArArGrGrArUrArUrCrGrAdCdT	74.7
sense rUrCrUrArArCrArGrArArGrArCrUrGrGrUrCrCdTdT / antisense rGrGrArCrCrArGrUrCrUrUrCrUrGrUrUrArGrAdAdT	73.3
sense rUrGrArCrCrUrUrArArArUrGrArGrArArGrArGdTdT / antisense rCrUrCrUrUrCrUrCrArUrUrUrArArGrGrUrCrAdTdT	75
sense rUrGrCrArCrCrArGrGrUrArCrCrUrUrArUrArUdTdT / antisense rArUrArUrArArGrGrUrArCrCrUrGrGrUrGrCrAdCdC	78
sense rUrGrCrGrArArCrArUrGrUrArArCrArArGrArAdTdT / antisense rUrUrCrUrUrGrUrUrArCrArUrGrUrUrCrGrCrAdCdA	104
sense rUrGrCrUrUrUrCrCrArGrCrUrGrCrArArGrGrAdTdT / antisense rUrCrCrUrUrGrCrArGrCrUrGrGrArArArGrCrAdTdG	110
sense rUrGrGrArArUrGrArCrCrUrUrArArArUrGrArGdTdT / antisense rCrUrCrArUrUrUrArArGrGrUrCrArUrUrCrCrAdGdG	96.4
sense rUrGrGrUrGrArArArArUrArUrUrCrCrUrGrUrUdTdT / antisense rArArCrArGrGrArArUrArUrUrUrUrCrArCrCrAdGdT	115
sense rUrGrUrUrUrArUrCrCrArUrUrCrUrArArCrArGdTdT / antisense rCrUrGrUrUrArGrArArUrGrGrArUrArArArCrAdGdA	66.2
sense rUrUrArArArUrUrUrArGrUrArGrUrCrGrArUrAdTdT / antisense rUrArUrCrGrArCrUrArCrUrArArArUrUrUrArAdAdT	79.9
sense rUrUrArCrArCrArGrUrGrGrArUrUrGrUrArGrAdTdT / antisense rUrCrUrArCrArArUrCrCrArCrUrGrUrGrUrArAdTdT	92.6
sense rUrUrCrCrUrGrUrUrCrArUrCrCrUrCrArUrGrUdTdT / antisense rArCrArUrGrArGrGrArUrGrArArCrArGrGrArAdTdA	73
sense rUrUrUrArArArUrUrUrArGrUrArGrUrCrGrArUdTdT / antisense rArUrCrGrArCrUrArCrUrArArArUrUrUrArArAdTdA	88
sense rUrUrUrArCrUrGrGrUrGrArArArArUrArUrUrCdTdT / antisense rGrArArUrArUrUrUrUrCrArCrCrArGrUrArArAdCdA	91.2
sense rUrUrUrUrGrArCrUrCrUrCrCrUrCrArGrGrUrCdTdT / antisense rGrArCrCrUrGrArGrGrArGrArGrUrCrArArArAdGdG	95

biological target: UBE2D3; test: reporter assay of Huesken 2005; details: siRNA

Substance	normalised inhibition (eCFP-eYFP dual reporter) [%]
RNA1{r(A)p.r(A)p.r(G)p.r(C)p.r(C)p.r(A)p.r(C)p.r(A)p.r(A)p.r(U)p.r(U)p.r(A)p.r(U)p.r(G)p.r(G)p.r(G)p.r(A)p.r(C)p.r(C)p.d(T)p.d(T)}|RNA2{r(G)p.r(G)p.r(U)p.r(C)p.r(C)p.r(C)p.r(A)p.r(U)p.r(A)p.r(A)p.r(U)p.r(U)p.r(G)p.r(U)p.r(G)p.r(G)p.r(C)p.r(U)p.r(U)p.d(G)p.d(C)}$$$RNA1{StrandType:ss}|RNA2{StrandType:as}$	52
RNA1{r(A)p.r(A)p.r(G)p.r(G)p.r(U)p.r(U)p.r(G)p.r(C)p.r(A)p.r(U)p.r(U)p.r(U)p.r(A)p.r(C)p.r(A)p.r(A)p.r(C)p.r(A)p.r(A)p.d(T)p.d(T)}|RNA2{r(U)p.r(U)p.r(G)p.r(U)p.r(U)p.r(G)p.r(U)p.r(A)p.r(A)p.r(A)p.r(U)p.r(G)p.r(C)p.r(A)p.r(A)p.r(C)p.r(C)p.r(U)p.r(U)p.d(A)p.d(G)}$$$RNA1{StrandType:ss}|RNA2{StrandType:as}$	83
